Source: ChEMBL document CHEMBL1151907, “Cyclic glycopeptidomimetics through a versatile sugar-based scaffold” (Bioorg Med Chem Lett, 2009)
The source made the active and inactive calls. The calls are words filed in the database; no cut-off is given here.

Columns and labels:
[1] = biological target: Integrin alpha-4/beta-1 (Homo sapiens) (UniProt P05556+P13612); assay: Inhibition of integrin alpha-4-beta-1-mediated U937 and Jurkat cell adhesion to VCAM-1 coated surface up to 100 uM by BCECF fluorescence measurement; type: cell-based
[2] = biological target: T1, Substance-K receptor (Homo sapiens) (UniProt P21452); assay: Displacement of [125I]neurokinin A from human tachykinin NK2 receptor expressed in CHO cell at 10 uM; type: cell-based
T1 sequence (whole entry): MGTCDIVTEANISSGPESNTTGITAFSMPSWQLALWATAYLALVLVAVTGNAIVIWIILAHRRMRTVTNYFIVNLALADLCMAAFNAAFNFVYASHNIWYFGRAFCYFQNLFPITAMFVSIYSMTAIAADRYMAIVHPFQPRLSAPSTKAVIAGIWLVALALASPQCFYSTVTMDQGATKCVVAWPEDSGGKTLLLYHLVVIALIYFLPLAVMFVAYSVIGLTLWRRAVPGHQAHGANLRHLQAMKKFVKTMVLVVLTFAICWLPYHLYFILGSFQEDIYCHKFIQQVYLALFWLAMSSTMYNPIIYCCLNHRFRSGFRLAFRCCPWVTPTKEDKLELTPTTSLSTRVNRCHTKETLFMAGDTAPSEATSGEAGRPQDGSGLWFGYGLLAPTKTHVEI

inhibition [1]	inhibition [2] [%]	Structure (SMILES)
inactive		CC[C@H](C)[C@@H]1NC(=O)[C@H](CCC(=O)O)NC(=O)[C@H]2O[C@@H]3OC(=C(C(=O)OC)S[C@@H]3[C@@H](O)[C@@H]2O)C[C@@H](C(=O)O)NC(=O)[C@H](C(C)C)NC(=O)[C@H](CC(=O)O)NC(=O)[C@H](CC(C)C)NC1=O
	25	COC(=O)C1=C2C[C@@H](C(=O)OCc3ccccc3)NC(=O)[C@H](C)NC(=O)[C@H](Cc3ccccc3)NC(=O)[C@H](Cc3ccccc3)NC(=O)[C@H](Cc3ccccc3)NC(=O)[C@H](C)NC(=O)[C@H]3O[C@H](O2)[C@H](S1)[C@@H](O)[C@@H]3O
